Test results: patent US20240309003A1, “HETEROCYCLIC COMPOUNDS AS TRIGGERING RECEPTOR EXPRESSED ON MYELOID CELLS 2 AGONISTS AND METHODS OF USE” (Vigil Neuroscience, Inc., priority 2021, published 2024)

Molecular target: T1, human TREM2 (Homo sapiens, UniProt Q9NZC2)
T1 construct: expressed in transfected cells; host or cells: HEK293T
Assay: TREM2 agonist potency by cellular phosphorylation of Syk (AlphaLisa) in HEK293T-hTREM2 cells
Type: cell-based
Settings: HEK293 cells expressing human TREM2 and DAP12, Table D-2
Procedure, shortened: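 Agonist EC50 from a variable-slope four-parameter fit of % activation, based on AlphaLisa phospho-Syk levels in lysates. Cells: HEK293T-hTREM2 (with DAP12), treated 45 min at room temperature with compound in assay buffer.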

T1 sequence (Q9NZC2 19-230): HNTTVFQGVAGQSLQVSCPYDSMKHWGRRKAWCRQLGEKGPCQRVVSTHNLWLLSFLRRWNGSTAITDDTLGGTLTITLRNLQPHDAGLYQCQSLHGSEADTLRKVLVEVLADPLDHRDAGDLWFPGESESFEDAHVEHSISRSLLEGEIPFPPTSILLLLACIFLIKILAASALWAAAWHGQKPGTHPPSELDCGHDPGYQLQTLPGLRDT
T1 sequence (O43914 22-113 partner): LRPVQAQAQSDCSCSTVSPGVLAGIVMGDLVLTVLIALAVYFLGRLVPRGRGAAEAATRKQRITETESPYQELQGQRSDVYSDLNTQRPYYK

EC50 [nM] | Structure (SMILES)
50 to 500 | Cc1nc2nc(N3CCO[C@H](c4cnn5c4CCC5)C3)nc(-c3ccc(F)cc3F)c2nc1C [Example I-1529, (2R)-4-[4-(2,4-difluorophenyl)-6,7-dimethyl-pteridin-2-yl]-2-(5,6-dihydro-4H-pyrrolo[1,2-b]pyrazol-3-yl)morpholine]
< 50 | Cc1nc2nc(N3C[C@@H](C)O[C@@H](c4cnn(C5CC5)c4)C3)nc(-c3cc(F)c(C(F)(F)F)cc3F)c2nc1C [Example I-1538, (2S,6R)-2-(1-cyclopropylpyrazol-4-yl)-4-[4-[2,5-difluoro-4-(trifluoromethyl)phenyl]-6,7-dimethyl-pteridin-2-yl]-6-methyl-morpholine]
< 50 | Cc1nc2cc([C@H]3CCO[C@@H](c4cnn(C5CC5)c4)C3)nc(-c3ccc(F)cc3F)c2nc1C(F)F [Example I-1552, 7-((2R,4S)-2-(1-cyclopropyl-1H-pyrazol-4-yl)tetrahydro-2H-pyran-4-yl)-3-(difluoromethyl)-5-(2,4-difluorophenyl)-2-methylpyrido[3,4-b]pyrazine]
50 to 500 | CCc1nc2c(-c3ccc(F)cc3F)nc([C@H]3CCO[C@@H](c4cnn(C5CC5)c4)C3)cc2nc1C [Example I-1557, 7-((2R,4S)-2-(1-cyclopropyl-1H-pyrazol-4-yl)tetrahydro-2H-pyran-4-yl)-5-(2,4-difluorophenyl)-3-ethyl-2-methylpyrido[3,4-b]pyrazine]
50 to 500 | Cc1nc2cc([C@H]3CCO[C@@H](c4cnn(C5CC5)c4)C3)nc(-c3ccc(C(F)(F)F)cc3F)c2nc1C(F)(F)F [Example I-1562]
3000 to 100000 | Cc1nc2c(-c3ccc(C(F)(F)F)cc3F)cn([C@H]3CCO[C@@H](c4cnn(C5CC5)c4)C3)c(=O)c2nc1C [Example I-1567, 6-[(2R,4S)-2-(1-cyclopropyl-1H-pyrazol-4-yl)tetrahydro-2H-pyran-4-yl]-8-[2-fluoro-4-(trifluoromethyl)phenyl]-2,3-dimethylpyrido[3,4-b]pyrazin-5(6H)-one]
< 50 | Cc1cc(F)c(-c2nc([C@H]3CCO[C@@H](c4cnn(C5CC5)c4)C3)nc3nc(C)c(C)nc23)cc1F [Example I-1572, 2-[(2R,4S)-2-(1-cyclopropylpyrazol-4-yl)tetrahydropyran-4-yl]-4-(2,5-difluoro-4-methyl-phenyl)-6,7-dimethyl-pteridine]
< 50 | Cc1nc2nc([C@H]3CCO[C@@H](c4cnn(CC5CC5)c4)C3)nc(-c3ccc(C(F)(F)F)cc3F)c2nc1C [Example I-1577, 2-[(2R,4S)-2-[1-(cyclopropylmethyl)pyrazol-4-yl]tetrahydropyran-4-yl]-4-[2-fluoro-4-(trifluoromethyl)phenyl]-6,7-dimethyl-pteridine]
< 50 | Cc1nc2nc(C3CCO[C@@H](c4cnn(C5CC5)c4)C3)nc(C3CC4(C3)CC(F)(F)C4)c2nc1C (stereo partly drawn) [Example I-1582, 2-[(2R)-2-(1-cyclopropylpyrazol-4-yl)tetrahydropyran-4-yl]-4-(2,2-difluorospiro[3.3]heptan-6-yl)-6,7-dimethyl-pteridine]
< 50 | Cc1nc2nc(C3CCO[C@@H](c4cnn(C5CC5)c4)C3)nc(-c3cc(C(F)(F)F)c(F)cc3F)c2nc1C (stereo partly drawn) [Example I-1585, 2-((2R)-2-(1-cyclopropyl-1H-pyrazol-4-yl)tetrahydro-2H-pyran-4-yl)-4-(2,4-difluoro-5-(trifluoromethyl)phenyl)-6,7-dimethylpteridinee]
< 50 | Cc1nc2nc([C@H]3CCO[C@@H](c4cnn(C5CC5)c4)C3)nc(-c3ccc(C(F)(F)F)cc3F)c2nc1C(F)F [Example I-1593, 2-[(2R,4S)-2-(1-cyclopropylpyrazol-4-yl)tetrahydropyran-4-yl]-6-(difluoromethyl)-4-[2-fluoro-4-(trifluoromethyl)phenyl]-7-methyl-pteridine]
500 to 3000 | CN(C)C(=O)c1nc2c(-c3ccc(F)cc3F)nc(C3CCO[C@@H](c4cnn(C5CC5)c4)C3)nc2nc1C1CC1 (stereo partly drawn) [Example I-1603, 7-cyclopropyl-2-[(2R)-2-(1-cyclopropylpyrazol-4-yl)tetrahydropyran-4-yl]-4-(2,4-difluorophenyl)-N,N-dimethyl-pteridine-6-carboxamide]
< 50 | Cc1nc2nc(N3C[C@@H](C)O[C@@H](c4cnn(C5CC5)c4)C3)nc(-c3ccc(F)cc3F)c2nc1C(F)F [Example I-1609, (2S,6R)-2-(1-cyclopropylpyrazol-4-yl)-4-[6-(difluoromethyl)-4-(2,4-difluorophenyl)-7-methyl-pteridin-2-yl]-6-methyl-morpholine]
< 50 | Cc1nc2nc(N3C[C@@H](C)O[C@@H](c4cnn(C)c4)C3)nc(-c3ccc(F)cc3F)c2nc1C [Example I-1633]
< 50 | Cc1nc2nc(N3C[C@@H](c4cnn(C5CC5)c4)O[C@@H](C(F)F)C3)nc(-c3ccc(C(F)(F)F)cc3F)c2nc1C [Example I-1638, (2R,6R)-2-(1-cyclopropylpyrazol-4-yl)-6-(difluoromethyl)-4-[4-[2-fluoro-4-(trifluoromethyl)phenyl]-6,7-dimethyl-pteridin-2-yl]morpholine]
< 50 | Cc1nc2nc([C@H]3CCO[C@@H](c4cnn(C56CC(C5)C6)c4)C3)nc(-c3ccc(F)cc3F)c2nc1C [Example I-1668, 2-[(2R,4S)-2-[1-(1-bicyclo [1.1.1]pentanyl)pyrazol-4-yl]tetrahydropyran-4-yl]-4-(2,4-difluorophenyl)-6,7-dimethyl-pteridine]
< 50 | Cc1nc2nc(N3C[C@@H](C4CC4)O[C@@H](c4cnn(C)c4)C3)nc(-c3ccc(F)cc3F)c2nc1C [Example I-1673, (2R,6S)-2-cyclopropyl-4-[4-(2,4-difluorophenyl)-6,7-dimethyl-pteridin-2-yl]-6-(1-methylpyrazol-4-yl)morpholine]
50 to 500 | Cc1nc2nc(N3C[C@@H](c4cnn(C)c4)O[C@@H](C4CC4)C3)nc(-c3ccc(F)cc3F)c2nc1C [Example I-1674, (2S,6R)-2-cyclopropyl-4-[4-(2,4-difluorophenyl)-6,7-dimethyl-pteridin-2-yl]-6-(1-methylpyrazol-4-yl)morpholine]
< 50 | Cc1nc2nc(N3C[C@@H](C)O[C@@H](c4cnn(CCO)c4)C3)nc(-c3ccc(Cl)cc3F)c2nc1C [Example I-1686, 2-(4-((2S,6R)-4-(4-(4-chloro-2-fluorophenyl)-6,7-dimethylpteridin-2-yl)-6-methylmorpholin-2-yl)-1H-pyrazol-1-yl)ethan-1-ol]
50 to 500 | Cc1nc2nc([C@H]3CCO[C@H](c4cnc(C5CC5)o4)C3)nc(-c3ccc(F)cc3F)c2nc1C [Example I-1698, 2-cyclopropyl-5-[(2S,4S)-4-[4-(2,4-difluorophenyl)-6,7-dimethyl-pteridin-2-yl]tetrahydropyran-2-yl]oxazole]
50 to 500 | Cc1nc2nc([C@H]3CCO[C@@H](c4cnc(C5CC5)o4)C3)nc(-c3ccc(F)cc3F)c2nc1C [Example I-1699, 2-cyclopropyl-5-[(2R,4S)-4-[4-(2,4-difluorophenyl)-6,7-dimethyl-pteridin-2-yl]tetrahydropyran-2-yl]oxazole]
50 to 500 | Cc1nc2nc([C@@H]3CCO[C@H](c4cnc(C5CC5)o4)C3)nc(-c3ccc(F)cc3F)c2nc1C [Example I-1700, 2-cyclopropyl-5-[(2S,4R)-4-[4-(2,4-difluorophenyl)-6,7-dimethyl-pteridin-2-yl]tetrahydropyran-2-yl]oxazole]
< 50 | Cc1nc2nc(N3C[C@@H](C4CC4)O[C@@H](c4cnn(C(F)F)c4)C3)nc(-c3ccc(C(F)(F)F)cc3F)c2nc1C [Example I-1711, (2R,6S)-2-cyclopropyl-6-[1-(difluoromethyl)pyrazol-4-yl]-4-[4-[2-fluoro-4-(trifluoromethyl)phenyl]-6,7-dimethyl-pteridin-2-yl]morpholine]
50 to 500 | Cc1nc2nc(N3C[C@@H](c4cnn(C(F)F)c4)O[C@@H](C4CC4)C3)nc(-c3ccc(C(F)(F)F)cc3F)c2nc1C [Example I-1712, (2S,6R)-2-cyclopropyl-6-[1-(difluoromethyl)pyrazol-4-yl]-4-[4-[2-fluoro-4-(trifluoromethyl)phenyl]-6,7-dimethyl-pteridin-2-yl]morpholine]
< 50 | Cc1nc2nc(N3C[C@@H](C)O[C@@H](c4cnn(C5CC5)c4)C3)nc([C@H]3C[C@H](OC(F)(F)F)C3)c2nc1C [Example I-1729, (2S,6R)-2-(1-cyclopropylpyrazol-4-yl)-4-[6,7-dimethyl-4-[3-(trifluoromethoxy)cyclobutyl]pteridin-2-yl]-6-methyl-morpholine]
< 50 | COCn1cc([C@H]2CN(c3nc(-c4ccc(F)cc4F)c4nc(C)c(C)nc4n3)C[C@@H](C3CC3)O2)cn1 [Example I-1736, (2R,6S)-2-cyclopropyl-4-[4-(2,4-difluorophenyl)-6,7-dimethyl-pteridin-2-yl]-6-[1-(methoxymethyl)pyrazol-4-yl]morpholine]
50 to 500 | Cc1nc2nc([C@H]3CCO[C@@H](c4cnn(C5CC5)c4)C3)nc(-c3ccc(F)cc3F)c2nc1C1CCCCC1 [Example I-1744, 6-cyclohexyl-2-((2R,4S)-2-(1-cyclopropyl-1H-pyrazol-4-yl)tetrahydro-2H-pyran-4-yl)-4-(2,4-difluorophenyl)-7-methylpteridine]
